The results in this text go back to patent publication US20080125397A1, “2 (SULFONYL)ETHYL N,N,N',N' tetrakis(2 chloroethyl)phosphorodia” (Telik, Inc., priority 2006, published 2008).

In general, IC50 refers to the concentration needed to halve the response being measured. The solubility is the dissolved amount per volume that the medium holds. A higher solubility goes with much dissolved substance.

The subject of data set [1] is MIA PaCa-2 (pancreatic carcinoma). In words: Cytotoxicity/growth inhibition assay (CellTiter-Glo), MIA PaCa-2. It counts as cell-based, human. The procedure: (§1) The human cancer cell lines DLD-1 (colorectal adenocarcinoma), LNCaP (prostate carcinoma), and MIA PaCa-2 (pancreatic carcinoma) were obtained from the American Type Culture Collection, Manassas, Va., U.S.A., and MX-1 (breast carcinoma) from the National Cancer Institute, Bethesda, Md., U.S.A. The CellTiter-Glo assay kit was obtained from Promega Corporation, Madison, Wis., U.S.A. All products were used in accordance with manufacturer's directions. All assays were conducted in triplicate wells, with dimethyl sulfoxide (DMSO) solvent control. The extent of cell growth was expressed as a percentage of the signal from the solvent control wells.
(§2) Log-phase cells were trypsinized, collected by centrifugation, and resuspended in a small volume of fresh medium, and the density of viable cells was determined following Trypan Blue staining. Cells were diluted in fresh media (3×10^3 cells/mL for DLD-1, MIA PaCa-2, and MX-1, and 6×10^3 cells/mL for LNCaP), and added at 150 μL/well to 96-well plates, and incubated for several hours to allow attachment in the case of adherent cells. […] After incubation for 10 minutes at room temperature, and the plate was read with a luminometer.
In general terms: In ATP-based viability assays light output follows the ATP content of the culture.

The test system of data set [2] is LNCaP (prostate carcinoma). In words: Cytotoxicity/growth inhibition assay (CellTiter-Glo), LNCaP. The format is cell-based, human. The procedure: as §1, §2
The subject of data set [3] is MX-1 tumor. In words: MX-1 xenograft assay, intravenous administration. It counts as in vivo, athymic nu/nu mice. The procedure:
(§3) Female athymic nu/nu mice (Harlan, Indianapolis, Ind., U.S.A. or similar vendor), 6-8 weeks old (approximately 20 g), were implanted in the mammary fat pad of the right fore flank with 20-30 mg pieces of MX-1 tumor harvested from similar nu/nu mice that had previously been implanted with the MX-1 tumor. […] Groups of mice were treated with 2-({2-oxo-2-[(pyridin-3-ylmethyl)amino]ethyl}sulfonyl)ethyl N,N,N′,N′-tetrakis(2-chloroethyl)phosphorodiamidate hydrochloride at 50 and 100 mg/Kg, dissolved in aqueous 5% dextrose, by intraperitoneal injection once/day for 5 consecutive days, with vehicle control. Tumor mass, estimated from volume, was measured twice weekly; and tumor growth inhibition was measured when the average tumor mass in the control group first exceeded 2000 mg.
A study similar to that described in In vivo Example 1 was performed using intravenous administration of 2-({2-oxo-2-[(pyridin-3-ylmethyl)amino]ethyl}sulfonyl)ethyl N,N,N′,N′-tetrakis(2-chloroethyl)phosphorodiamidate hydrochloride. A group of mice was treated with the compound, dissolved in aqueous 5% dextrose, at 40 and 80 mg/Kg by tail vein injection once/day for 5 consecutive days (with vehicle control).

For another data set, the system named is MIA PaCa-2 tumor. In words: MiaPaCa-2 xenograft assay, intraperitoneal administration. The format is in vivo, athymic nu/nu mice. Particulars: 100 mg/Kg intraperitoneal once/day for 7 consecutive days. The procedure: Male athymic nu/nu mice, 6-8 weeks old (approximately 20 g), were implanted subcutaneously in the right fore flank with 20-30 mg pieces of MIA PaCa-2 tumor harvested from similar nu/nu mice that had previously been implanted with the MIA PaCa-2 tumor. […] A group of mice was treated with 2-({2-oxo-2-[(pyridin-3-ylmethyl)-amino]ethyl}sulfonyl)ethyl N,N,N′,N′-tetrakis(2-chloroethyl)phosphorodiamidate hydrochloride, dissolved in aqueous 5% dextrose, at 100 mg/Kg by intraperitoneal injection once/day for 7 consecutive days, with vehicle control.

Data set [4] concerns DLD-1 (colorectal adenocarcinoma). Description: Cytotoxicity/growth inhibition assay (CellTiter-Glo), DLD-1. The format is cell-based, human. The procedure:
as §1, §2

The subject of another data set is MX-1 (breast carcinoma). In words: Cytotoxicity/growth inhibition assay (CellTiter-Glo), MX-1. It counts as cell-based, human. The procedure:
as §1, §2

For data set [5], the system named is MX-1 tumor. Description: MX-1 xenograft assay, intraperitoneal administration. The format is in vivo, athymic nu/nu mice. The procedure:
as §3

For data set [6], the system named is MX-1 tumor. Description: MX-1 xenograft assay, oral administration. It counts as in vivo, athymic nu/nu mice. Particulars: 150 mg/Kg by gavage once/day for 5 consecutive days. The procedure:
as §3
(§4) A study similar to that described in In vivo Example 1 was performed using oral administration of 2-({2-oxo-2-[(pyridin-3-ylmethyl)amino]ethyl}sulfonyl)ethyl N,N,N′,N′-tetrakis(2-chloroethyl)phosphorodiamidate hydrochloride. A group of mice was treated with the compound, dissolved in water, at 150 mg/Kg by gavage once/day for 5 consecutive days (with vehicle control).

A short description of the next data set: Solubility in water. It counts as physicochemical.
Data set [7] can be described thus: Safety at the doses tested in the in vivo examples. Also on record: species or system athymic nu/nu mice. The procedure: as §3, §4
A study similar to that described in In vivo Example 1 was performed using intravenous administration of 2-({2-oxo-2-[(pyridin-3-ylmethyl)amino]ethyl}sulfonyl)ethyl N,N,N′,N′-tetrakis(2-chloroethyl)phosphorodiamidate hydrochloride. […]

Structures are written as SMILES. Bounds are passed on as bounds.

In the case of `Cl.O=C(CS(=O)(=O)CCOP(=O)(N(CCCl)CCCl)N(CCCl)CCCl)NCc1cccnc1` [2-({2-Oxo-2-[(pyridin-3-ylmethyl)amino]ethyl}sulfonyl)ethyl N,N,N′,N′-tetrakis(2-chloroethyl)phosphorodiamidate hydrochloride], the IC50 in data set [1] (Homo sapiens, 72 h, MIA PaCa-2, 3 days culture) came to 16 µM; in data set [2] (Homo sapiens, 96 h, 4 days culture), 67 µM; in data set [4] (Homo sapiens, 96 h, DLD-1, 4 days culture) it was 12 µM; in the data set on MX-1 (breast carcinoma) (Homo sapiens, 72 h, MX-1, 3 days culture) it was 22 µM. Also, the “inhibition of tumor growth compared to vehicle” value is listed as 39% in the data set on MX-1 tumor [3] (40 mg/Kg tail vein injection once/day for 5 consecutive days); 98% in the data set on MX-1 tumor [3] (80 mg/Kg tail vein injection once/day for 5 consecutive days); 92% with MIA PaCa-2 tumor; 28% in the data set with MX-1 tumor [5] (50 mg/Kg intraperitoneal once/day for 5 consecutive days); 95% in the data set with MX-1 tumor [5] (100 mg/Kg intraperitoneal once/day for 5 consecutive days); 67% with MX-1 tumor [6]. For the same compound, in the data set “Solubility in water”, the solubility was at least 10000 µg/mL.

Regarding `O=C(CS(=O)(=O)CCOP(=O)(N(CCCl)CCCl)N(CCCl)CCCl)NCc1cccnc1` [2-({2-oxo-2-[(pyridin-3-ylmethyl)amino]ethyl}sulfonyl)ethyl N,N,N′,N′-tetrakis(2-chloroethyl)phosphorodiamidate], the “potency compared with canfosfamide” value (in [1] (MIA PaCa-2); in data set [2]; in [4] (DLD-1); in the data set with MX-1 (breast carcinoma) (MX-1)) was “at least as potent as canfosfamide” each time. Moreover, in data set [7], the safety/toxicity entry was “safe and non-toxic”.

As to `O=C(CS(=O)(=O)CCOP(=O)(N(CCCl)CCCl)N(CCCl)CCCl)NCc1cccnc1.O=C(O)C(O)C(O)C(=O)O` [tartrate salt, 2-({2-Oxo-2-[(pyridin-3-ylmethyl)amino]ethyl}sulfonyl)ethyl N,N,N′,N′-tetrakis(2-chloroethyl)phosphorodiamidate tartrate], the solubility in the data set “Solubility in water” was at least 5000 µg/mL.
